Assay results published in ChEMBL document CHEMBL4311976, “Design, synthesis and biological evaluation of novel 7H-pyrrolo[2,3-d]pyrimidine derivatives as potential FAK inhibitors and anticancer agents” (Eur J Med Chem, 2019).

Key:
[1] = target: Serine/threonine-protein kinase TBK1 (Homo sapiens) (UniProt Q9UHD2); test: Inhibition of recombinant full length GST-tagged human TBK1 expressed in insect cells at 0.5 uM using Ser/Thr 05 as substrate in presence of ATP at Km concentration after 1 hr by Z'-LYTE assay relative to control
Sequence of Serine/threonine-protein kinase TBK1 (Homo sapiens) (Q9UHD2 whole entry, the tested form may be a part): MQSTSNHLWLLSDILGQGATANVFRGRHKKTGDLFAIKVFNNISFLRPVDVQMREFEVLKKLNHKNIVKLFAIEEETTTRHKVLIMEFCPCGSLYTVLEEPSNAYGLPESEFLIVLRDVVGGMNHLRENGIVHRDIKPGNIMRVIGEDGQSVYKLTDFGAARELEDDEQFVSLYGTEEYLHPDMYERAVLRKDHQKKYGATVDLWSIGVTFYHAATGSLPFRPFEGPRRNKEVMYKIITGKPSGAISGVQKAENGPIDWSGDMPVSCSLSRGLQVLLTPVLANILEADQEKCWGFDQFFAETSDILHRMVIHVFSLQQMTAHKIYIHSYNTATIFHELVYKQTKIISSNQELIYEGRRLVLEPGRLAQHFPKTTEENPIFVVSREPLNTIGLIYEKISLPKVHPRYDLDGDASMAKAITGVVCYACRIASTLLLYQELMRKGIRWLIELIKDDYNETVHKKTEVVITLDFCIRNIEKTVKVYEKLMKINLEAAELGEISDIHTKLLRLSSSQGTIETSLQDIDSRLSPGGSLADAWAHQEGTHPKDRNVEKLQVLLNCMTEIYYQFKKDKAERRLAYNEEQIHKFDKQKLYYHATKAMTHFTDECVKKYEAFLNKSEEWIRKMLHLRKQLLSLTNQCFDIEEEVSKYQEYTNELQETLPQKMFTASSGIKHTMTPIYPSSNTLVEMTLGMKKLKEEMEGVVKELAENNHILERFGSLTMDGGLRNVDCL

Focal adhesion kinase 1 [2] = target: T1, Focal adhesion kinase 1 (Homo sapiens, UniProt Q05397); test: Inhibition of recombinant full length GST-tagged human FAK cytoplasmic domain expressed in baculovirus expression system at 0.5 uM using tyr 07 as substrate in presence of ATP at Km concentration after 1 hr by Z'-LYTE assay relative to control
[3] = target: Serine/threonine-protein kinase PLK1 (Homo sapiens) (UniProt P53350); test: Inhibition of recombinant full length His-tagged human PLK1 expressed in baculovirus expression system at 0.5 uM using Ser/Thr 16 as substrate in presence of ATP at Km concentration after 1 hr by Z'-LYTE assay relative to control
[4] = target: Hepatocyte growth factor receptor (Homo sapiens) (UniProt P08581); test: Inhibition of recombinant full length N-terminal His-tagged human cMET cytoplasmic domain (956 to 1390 residues) expressed in baculovirus expression system at 0.5 uM using tyr 06 as substrate in presence of ATP at Km concentration after 1 hr by Z'-LYTE assay relative to control
Sequence of Hepatocyte growth factor receptor (Homo sapiens) (P08581 whole entry, the tested form may be a part): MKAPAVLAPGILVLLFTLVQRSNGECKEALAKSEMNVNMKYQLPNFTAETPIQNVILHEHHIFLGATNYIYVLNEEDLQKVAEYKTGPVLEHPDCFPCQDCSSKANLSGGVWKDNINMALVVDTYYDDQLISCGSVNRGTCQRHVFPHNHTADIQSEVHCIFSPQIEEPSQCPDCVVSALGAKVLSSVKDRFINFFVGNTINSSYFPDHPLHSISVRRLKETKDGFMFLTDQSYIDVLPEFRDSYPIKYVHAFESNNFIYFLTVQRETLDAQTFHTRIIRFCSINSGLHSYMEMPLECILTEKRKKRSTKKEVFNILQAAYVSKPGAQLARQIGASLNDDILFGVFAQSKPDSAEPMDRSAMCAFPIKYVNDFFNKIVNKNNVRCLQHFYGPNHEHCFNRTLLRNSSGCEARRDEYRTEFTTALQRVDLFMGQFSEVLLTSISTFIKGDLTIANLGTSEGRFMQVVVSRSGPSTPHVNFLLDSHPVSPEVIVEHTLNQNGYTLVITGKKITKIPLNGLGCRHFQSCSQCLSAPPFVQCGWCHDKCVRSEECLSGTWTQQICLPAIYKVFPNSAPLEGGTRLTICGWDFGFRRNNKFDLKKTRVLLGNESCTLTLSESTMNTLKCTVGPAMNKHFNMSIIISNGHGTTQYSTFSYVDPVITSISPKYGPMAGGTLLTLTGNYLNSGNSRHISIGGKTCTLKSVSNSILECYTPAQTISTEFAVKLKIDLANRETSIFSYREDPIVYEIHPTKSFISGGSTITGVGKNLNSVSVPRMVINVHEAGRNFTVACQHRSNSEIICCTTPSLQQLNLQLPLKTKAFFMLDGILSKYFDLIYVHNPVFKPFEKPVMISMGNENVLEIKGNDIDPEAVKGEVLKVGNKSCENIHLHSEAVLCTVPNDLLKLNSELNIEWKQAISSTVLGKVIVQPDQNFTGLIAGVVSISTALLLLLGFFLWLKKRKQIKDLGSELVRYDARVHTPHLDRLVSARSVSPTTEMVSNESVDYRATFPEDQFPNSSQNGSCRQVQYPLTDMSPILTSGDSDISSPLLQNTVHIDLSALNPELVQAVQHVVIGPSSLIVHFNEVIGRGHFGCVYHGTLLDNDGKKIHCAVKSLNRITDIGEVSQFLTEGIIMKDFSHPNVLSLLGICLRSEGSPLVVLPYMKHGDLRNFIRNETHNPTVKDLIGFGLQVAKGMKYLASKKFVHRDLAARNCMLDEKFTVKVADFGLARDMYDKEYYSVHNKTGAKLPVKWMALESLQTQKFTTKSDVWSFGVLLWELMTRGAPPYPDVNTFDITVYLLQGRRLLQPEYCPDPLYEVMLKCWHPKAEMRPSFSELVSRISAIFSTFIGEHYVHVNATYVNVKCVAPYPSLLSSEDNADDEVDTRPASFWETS

[5] = target: Mitogen-activated protein kinase 1 (Homo sapiens) (UniProt P28482); test: Inhibition of recombinant full length GST-tagged human ERK2 expressed in Escherichia coli at 0.5 uM using Ser/Thr 03 as substrate in presence of ATP at Km concentration after 1 hr by Z'-LYTE assay relative to control
Sequence of Mitogen-activated protein kinase 1 (Homo sapiens) (P28482 whole entry, the tested form may be a part): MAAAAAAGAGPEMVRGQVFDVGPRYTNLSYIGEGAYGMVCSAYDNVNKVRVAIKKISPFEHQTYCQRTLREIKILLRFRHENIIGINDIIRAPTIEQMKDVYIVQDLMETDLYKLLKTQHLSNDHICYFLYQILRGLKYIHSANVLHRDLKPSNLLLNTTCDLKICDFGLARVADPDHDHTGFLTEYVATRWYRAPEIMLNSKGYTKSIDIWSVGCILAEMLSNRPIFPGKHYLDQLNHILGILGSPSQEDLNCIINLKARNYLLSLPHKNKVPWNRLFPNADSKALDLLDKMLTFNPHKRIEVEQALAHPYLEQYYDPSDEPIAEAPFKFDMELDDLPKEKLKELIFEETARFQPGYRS

[6] = target: Receptor-type tyrosine-protein kinase FLT3 (Homo sapiens) (UniProt P36888); test: Inhibition of recombinant His-tagged human FLT3 (564 to 958 residues) expressed in baculovirus expression system at 0.5 uM using tyr 02 as substrate in presence of ATP at Km concentration after 1 hr by Z'-LYTE assay relative to control
[7] = target: Receptor tyrosine-protein kinase erbB-2 (Homo sapiens) (UniProt P04626); test: Inhibition of recombinant His-tagged human HER2 (676 to 1255 residues) expressed in baculovirus expression system at 0.5 uM using tyr 06 as substrate in presence of ATP at Km concentration after 1 hr by Z'-LYTE assay relative to control
[8] = target: Discoidin domain-containing receptor 2 (Homo sapiens) (UniProt Q16832); test: Inhibition of recombinant GST-tagged human DDR2 (427 to 855 residues) expressed in baculovirus expression system at 0.5 uM after 1 hr by Lantha screen assay relative to control
Sequence of Discoidin domain-containing receptor 2 (Homo sapiens) (Q16832 whole entry, the tested form may be a part): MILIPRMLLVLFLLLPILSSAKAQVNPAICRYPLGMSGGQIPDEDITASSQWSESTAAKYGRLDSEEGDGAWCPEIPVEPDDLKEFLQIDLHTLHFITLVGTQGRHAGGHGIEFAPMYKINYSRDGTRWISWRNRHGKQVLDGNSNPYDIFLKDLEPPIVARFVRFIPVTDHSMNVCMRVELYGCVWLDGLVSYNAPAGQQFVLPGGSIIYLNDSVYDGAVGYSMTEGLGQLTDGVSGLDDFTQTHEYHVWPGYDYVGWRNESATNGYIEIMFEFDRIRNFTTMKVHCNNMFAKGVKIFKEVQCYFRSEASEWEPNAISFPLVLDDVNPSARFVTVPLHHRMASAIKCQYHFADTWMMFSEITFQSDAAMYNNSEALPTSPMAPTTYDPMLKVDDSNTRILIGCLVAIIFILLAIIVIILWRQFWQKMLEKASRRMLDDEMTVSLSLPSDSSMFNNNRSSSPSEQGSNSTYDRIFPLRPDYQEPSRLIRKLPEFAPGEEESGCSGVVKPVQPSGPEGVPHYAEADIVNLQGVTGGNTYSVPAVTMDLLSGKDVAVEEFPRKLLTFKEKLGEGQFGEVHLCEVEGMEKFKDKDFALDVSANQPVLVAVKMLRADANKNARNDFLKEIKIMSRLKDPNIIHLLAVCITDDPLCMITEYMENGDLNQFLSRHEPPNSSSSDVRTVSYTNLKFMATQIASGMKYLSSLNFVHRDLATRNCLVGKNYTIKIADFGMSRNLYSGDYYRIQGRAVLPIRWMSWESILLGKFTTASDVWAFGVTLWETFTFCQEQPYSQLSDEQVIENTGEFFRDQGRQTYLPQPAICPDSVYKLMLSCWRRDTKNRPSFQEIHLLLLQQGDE

[9] = target: Macrophage colony-stimulating factor 1 receptor (Homo sapiens) (UniProt P07333); test: Inhibition of recombinant His-tagged human CSF1R cytoplasmic domain expressed in baculovirus expression system at 0.5 uM using tyr 01 as substrate in presence of ATP at Km concentration after 1 hr by Z'-LYTE assay relative to control
Sequence of Macrophage colony-stimulating factor 1 receptor (Homo sapiens) (P07333 whole entry, the tested form may be a part): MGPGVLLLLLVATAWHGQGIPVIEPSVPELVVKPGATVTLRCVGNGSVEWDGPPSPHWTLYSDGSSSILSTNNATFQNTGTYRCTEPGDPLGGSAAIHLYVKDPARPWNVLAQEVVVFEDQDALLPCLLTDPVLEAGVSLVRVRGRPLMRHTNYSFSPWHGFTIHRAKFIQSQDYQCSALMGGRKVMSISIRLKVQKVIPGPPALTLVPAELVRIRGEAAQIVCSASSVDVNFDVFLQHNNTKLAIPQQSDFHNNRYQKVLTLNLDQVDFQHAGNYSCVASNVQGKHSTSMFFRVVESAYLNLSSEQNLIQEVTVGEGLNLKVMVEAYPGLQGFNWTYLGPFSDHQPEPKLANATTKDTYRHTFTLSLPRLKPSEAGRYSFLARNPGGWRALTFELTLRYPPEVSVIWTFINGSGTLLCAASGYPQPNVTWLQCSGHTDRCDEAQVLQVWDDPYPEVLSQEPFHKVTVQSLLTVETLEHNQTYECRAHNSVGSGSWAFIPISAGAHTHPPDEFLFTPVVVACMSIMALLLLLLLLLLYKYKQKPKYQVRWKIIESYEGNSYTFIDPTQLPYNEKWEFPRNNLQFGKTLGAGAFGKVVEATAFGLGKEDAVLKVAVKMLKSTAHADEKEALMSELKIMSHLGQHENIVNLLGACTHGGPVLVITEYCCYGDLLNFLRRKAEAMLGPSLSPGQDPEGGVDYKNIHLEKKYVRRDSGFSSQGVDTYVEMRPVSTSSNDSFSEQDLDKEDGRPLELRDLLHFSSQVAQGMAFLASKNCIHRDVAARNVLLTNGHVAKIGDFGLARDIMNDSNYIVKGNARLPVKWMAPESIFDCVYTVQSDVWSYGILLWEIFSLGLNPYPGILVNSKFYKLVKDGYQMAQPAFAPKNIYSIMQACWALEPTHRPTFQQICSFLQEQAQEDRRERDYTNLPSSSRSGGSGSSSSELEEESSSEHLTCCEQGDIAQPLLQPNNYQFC

[10] = target: CDK2/Cyclin A2 (Homo sapiens) (UniProt P24941+P20248); test: Inhibition of recombinant full-legth His-tagged human CDK2/CyclinA expressed in baculovirus expression system at 0.5 uM using Ser/Thr 12 as substrate in presence of ATP at Km concentration after 1 hr by Z'-LYTE assay relative to control
[11] = target: Serine/threonine-protein kinase B-raf (Homo sapiens) (UniProt P15056); test: Inhibition of full length GST-tagged human BRAF expressed in baculovirus expression system at 0.5 uM using Ser/Thr 03 as substrate in presence of 100 uM ATP after 1 hr by Z'-LYTE assay relative to control
Sequence of Serine/threonine-protein kinase B-raf (Homo sapiens) (P15056 whole entry): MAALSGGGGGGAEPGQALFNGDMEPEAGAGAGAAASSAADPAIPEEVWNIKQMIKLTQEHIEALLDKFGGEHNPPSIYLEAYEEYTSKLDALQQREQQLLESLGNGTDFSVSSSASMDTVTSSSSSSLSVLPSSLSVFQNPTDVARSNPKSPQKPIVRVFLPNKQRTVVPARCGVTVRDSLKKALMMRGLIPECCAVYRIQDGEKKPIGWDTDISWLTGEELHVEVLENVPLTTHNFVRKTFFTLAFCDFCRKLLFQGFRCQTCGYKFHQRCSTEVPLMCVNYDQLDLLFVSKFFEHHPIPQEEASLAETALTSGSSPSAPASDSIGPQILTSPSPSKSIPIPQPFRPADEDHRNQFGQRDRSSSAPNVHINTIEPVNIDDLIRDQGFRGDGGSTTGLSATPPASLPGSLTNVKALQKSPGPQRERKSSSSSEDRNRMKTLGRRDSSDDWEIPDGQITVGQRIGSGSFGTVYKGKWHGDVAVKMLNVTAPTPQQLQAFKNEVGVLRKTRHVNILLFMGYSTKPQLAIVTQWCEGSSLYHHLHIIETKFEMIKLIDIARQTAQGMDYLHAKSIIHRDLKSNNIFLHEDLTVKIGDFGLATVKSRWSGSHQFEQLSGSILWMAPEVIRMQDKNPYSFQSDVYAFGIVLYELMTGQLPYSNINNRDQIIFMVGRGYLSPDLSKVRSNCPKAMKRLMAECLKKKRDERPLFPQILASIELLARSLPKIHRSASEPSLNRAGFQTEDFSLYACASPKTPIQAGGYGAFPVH

[12] = target: Tyrosine-protein kinase ABL1 (Homo sapiens) (UniProt P00519); test: Inhibition of full-length His-tagged human ABL1 expressed in baculovirus expression system at 0.5 uM using tyr 02 as substrate in presence of ATP at Km concentration after 1 hr by Z'-LYTE assay relative to control
CYP2C19 = CYP2C19 (Homo sapiens, UniProt P33261); test: Inhibition of CYP2C19 in human pooled liver microsomes at 10 uM using S-mephenytoin as substrate preincubated for 10 mins followed by NADPH addition and measured after 15 mins by LC/MS/MS analysis relative to control; format: ADME; conditions: probe S-mephenytoin
CYP1A2 = CYP1A2 (Homo sapiens, UniProt P05177); test: Inhibition of CYP1A2 in human pooled liver microsomes at 10 uM using phenacetin as substrate preincubated for 10 mins followed by NADPH addition and measured after 15 mins by LC/MS/MS analysis relative to control; format: ADME; conditions: probe phenacetin
[13] = Intrinsic clearance in mouse liver at 1 uM measured up to 1 hr in presence of NADPH by LC-MS/MS analysis; format: ADME, tissue-based
[14] = Metabolic stability in human liver microsomes assessed as compound remaining at 1 uM measured up to 1 hr in presence of NADPH by LC-MS/MS analysis; format: ADME, Microsome; conditions: read-out: Stability
[15] = Half life in human liver microsomes at 1 uM measured up to 1 hr by LC-MS/MS analysis; format: ADME, Microsome
[16] = Half life in mouse liver microsomes at 1 uM measured up to 1 hr by LC-MS/MS analysis; format: ADME, Microsome
[17] = Half life in rat liver microsomes at 1 uM measured up to 1 hr by LC-MS/MS analysis; format: ADME, Microsome
A549 [18] = test: Induction of apoptosis in human A549 cells assessed as necrotic cells at 9 uM after 72 hrs by Annexin V-FITC/propidium iodide staining-based flow cytometric analysis (reference value: 1.70%); format: functional
A549 [19] = test: Induction of apoptosis in human A549 cells assessed as viable cells at 9 uM after 72 hrs by Annexin V-FITC/propidium iodide staining-based flow cytometric analysis (reference value: 94.66%); format: functional; conditions: A549, 72 h, read-out: Activity
A549 [20] = test: Induction of apoptosis in human A549 cells assessed as necrotic cells at 3 uM after 72 hrs by Annexin V-FITC/propidium iodide staining-based flow cytometric analysis (reference value: 1.70%); format: functional
A549 [21] = test: Induction of apoptosis in human A549 cells assessed as early apoptotic cells at 3 uM after 72 hrs by Annexin V-FITC/propidium iodide staining-based flow cytometric analysis (reference value: 2.40%); format: functional
A549 [22] = test: Induction of apoptosis in human A549 cells after 72 hrs by Annexin V-FITC/propidium iodide staining-based flow cytometric analysis; format: functional, cell-based
Focal adhesion kinase 1 [23] = target: T1, Focal adhesion kinase 1; test: Inhibition of recombinant N-terminal GST-tagged human FAK (327 to 1052 residues) expressed in baculovirus expression system using TK as substrate incubated for 50 mins in presence of ATP and measured after 1 hr by HTRF assay
HK-2 = test: cells; conditions: Homo sapiens, HK-2, 72 h
Description: Cytotoxicity against human HK2 cells assessed as reduction in cell viability after 72 hrs by MTT assay

MDA-MB-231 = test: cells; conditions: Homo sapiens, MDA-MB-231, 72 h
Description: Antiproliferative activity against human MDA-MB-231 cells assessed as reduction in cell viability after 72 hrs by MTT assay

inhibition [1]: 23% | inhibition (Focal adhesion kinase 1 [2]): 100% | inhibition [3]: 43% | inhibition [4]: -2% | inhibition [5]: 9% | inhibition [6]: 13% | inhibition [7]: 12% | inhibition [8]: 1% | inhibition [9]: 12% | inhibition [10]: 1% | inhibition [11]: 3% | inhibition [12]: 5% | inhibition at 0.25 h, 10 µM (CYP2C19): 4.9% | inhibition at 0.25 h, 10 µM (CYP1A2): 1.5% | CLH [13]: 39.9 mL/min/kg | remaining at 1 h, 1 µM [14]: 67.9% | half-life at 1 µM [15]: 1.79 h | half-life at 1 µM [16]: 2.29 h | half-life at 1 µM [17]: > 2.42 h | IC50 (Focal adhesion kinase 1 [23]): 0.0054 µM | IC50 (HK-2): > 25 µM | IC50 (MDA-MB-231): 17.4 µM
Compound: COc1cc(C(=O)NC2CCNCC2)ccc1Nc1nc(Nc2ccccc2P(C)(C)=O)c2cc[nH]c2n1
Activity (A549 [18]): 4.15% | viability at 9 µM (A549 [19]): 29.1% | Activity (A549 [20]): 4.72% | Activity (A549 [21]): 17.3% | Activity (A549 [22]): Dose-dependent effect
